Measurements as given in patent US11912755B2, “Endostatin fragments and variants for use in treating fibrosis” (iBio, Inc., priority 2015, dated 2024).
Entries after “also recorded” stand apart in the source; their conditions may differ. Ends that are not written are not given here.

Experiments:
[1] = system: bleomycin induced dermal fibrosis; assay: Bleomycin-induced dermal fibrosis in mouse skin; format: in vivo; conditions: single administration of E4 10 μg/ml on first day, daily bleomycin; skin harvested after 10 days
Experimental: FIGS. 8A-8B. The effect of endostatin E-4 on bleomycin induced dermal fibrosis in vivo. FIG. 8A: Mice were injected subcutaneously with 1×PBS as vehicle (V) or Bleomycin (Bleo; 20 μg/mouse) daily. E-4 (10 μg/ml) was mixed with bleomycin on the first day, and daily bleomycin administration was continued without subsequent injections of E4 (Bleo+E-4). Skin was harvested after 10 days. Sections were stained with H&E. Magnification, 100×. Data represent three independent experiments. Mann-Whitney U test was used for statistical analysis. * P<0.001, **P<0.00001.
E4, a peptide representing the carboxy terminus of human endostatin, can attenuate fibrosis triggered by multiple fibrogenic factors. The anti-fibrotic effects of E4 can be detected whether administered concomitantly with or following the fibrogenic trigger. The efficacy of E4 was confirmed in […] pre-clinical models of fibrosis: a) bleomycin-induced dermal fibrosis in vivo in mouse skin, b) TGF-β induced dermal fibrosis in mouse skin, and c) bleomycin-induced pulmonary fibrosis. […]
For these studies, fibrosis was assessed by measurement of dermal thickness on H&E skin sections (skin), assessment of collagen levels by Masson Trichrome staining (skin and lung), and measurement of collagen levels by Sircol assay (lung). […] Results were assessed using the unpaired t test and the 3-way ANOVA (for the ID1 data).

[2] = system: CTGF; assay: Genes regulated by E4: CTGF; format: cell-based; conditions: primary human fibroblasts treated with bleomycin or TGF-β; RT-qPCR
Experimental: (§1) Several experiments have been performed to identify the mechanisms by which E4 exerts its anti-fibrotic activity. Real-time quantitative PCR (qPCR)-based arrays were performed on RNA extracted from primary human lung fibroblasts or mouse lung tissue stimulated with various fibrotic triggers in the absence and presence of E4 treatment in order to identify genes influenced by the endostatin peptide.
(§2) The arrays identified several genes that have been previously implicated in fibrosis to be influenced by E4 treatment. These genes included connective tissue growth factor (CTGF), insulin-like growth factor binding protein (IGFBP)-3, matrix metalloproteases (MMP)-1 and MMP-3, urokinase plasminogen activator (uPA), plasminogen activator inhibitor (PAI)-1, and hepatocyte growth factor (HGF) with levels either decreased or increased in the presence of E4 as shown in TABLE 5.

[3] = system: lysyl oxidase (LOX); assay: LOX immunohistochemistry in lung sections of bleomycin-treated mice; format: in vivo, mouse; conditions: bleomycin with or without E4
Excerpt: FIG. 12. […] Lung sections of mice treated with BLM with or without E4 were used in immunohistochemistry to detect LOX. The sections shown are control IgG, phosphate buffered saline, bleomycin and bleomycin followed by treatment with E4.

[4] = system: HUVECs; assay: Tubular formation assay in MATRIGEL; format: cell-based, human; conditions: 50 nM, 24 hours
Experimental: Tubular formation assay. The ability of endostatin peptide to inhibit angiogenesis was examined in tubular formation assay using MATRIGEL® culture. Human umbilical vein endothelial cells (HUVECs) were maintained in endothelial cell basal medium-2 (EBM-2; Clonetics, San Diego, CA) supplemented with EBM-2 MV SINGLEQUOTS®. HUVECs (5×10^4) were cultured in duplicate on 24-well MATRIGEL® plates (BD Biosciences, San Diego, CA) alone, or in the presence of rE or E4 peptide (50 nM) in EBM-2 at 37° C. DMSO was used as vehicle control. After 24 hours, images were captured using a […] microscope. The degree of cord formation was quantified by measuring the area occupied by tubes in 6 random fields per well. Three independent experiments were performed.

[5] = system: PAI-1; assay: Genes regulated by E4: PAI-1; format: cell-based, human; conditions: HuF-T and mouse bleomycin model of pulmonary fibrosis; RT-qPCR, protein expression
Experimental: as §1, §2

[6] = system: TGF-β-induced dermal fibrosis in mouse skin; conditions: single dose concurrently with TGF-β; cited from earlier work
[7] = system: bleomycin induced lung fibrosis; conditions: i.t.; concomitantly or 3 days after bleomycin; cited from earlier work
[8] = system: ID1; assay: Real-time PCR of ID1 mRNA in primary human lung fibroblasts; format: cell-based
Experimental: FIG. 15. […] Real-time PCR analysis was performed to determine the ID1 mRNA levels under the indicated conditions.

[9] = system: IGFBP-3; assay: Genes regulated by E4: IGFBP-3; format: cell-based, human; conditions: HuF-T; RT-qPCR, protein expression levels
Experimental: as §1, §2

[10] = system: TGF-β-induced dermal fibrosis in mouse skin; assay: In vivo TGF-β-induced dermal fibrosis in mouse skin
Experimental: In Vivo Mouse Experiments. CB57BL6/J male mice were purchased from The Jackson Laboratory (Bar Harbor, ME). Human rE (10 μg/ml) or Endostatin peptides (10 μg/ml) in combination with TGF-β (10 ng/ml), or TGF-β alone were injected intradermally on the back of mice in a total volume of 100 μl 1×PBS. Mice were injected in two different skin sites and sacrificed one week post-injection. Skin surrounding the injection site was harvested and fixed in 10% formalin prior to embedding in paraffin.
Measurement of Skin Dermal Thickness. Six μm sections of paraffin-embedded human and mouse skin tissues were stained with hematoxylin and eosin (H&E). In some experiments, sections were stained with Masson trichrome which identifies collagens. Images were taken on a Nikon Eclipse 800 microscope. The thickness of the dermis was measured in 6 random fields of each section using the image/J® software. Data are shown in arbitrary units.
E4, a peptide representing the carboxy terminus of human endostatin, can attenuate fibrosis triggered by multiple fibrogenic factors. The anti-fibrotic effects of E4 can be detected whether administered concomitantly with or following the fibrogenic trigger. The efficacy of E4 was confirmed in […] pre-clinical models of fibrosis: a) bleomycin-induced dermal fibrosis in vivo in mouse skin, b) TGF-β induced dermal fibrosis in mouse skin, and c) bleomycin-induced pulmonary fibrosis. E4 peptide or a control peptide (E1; representing the amino terminal region of endostatin) were administered at the same time as TGF-β or bleomycin or 3-4 days following TGF-β or bleomycin. Mice were sacrificed one and two weeks after TGF-β-initiation of dermal fibrosis, and two and three weeks after bleomycin-induced pulmonary fibrosis. Two different modes of administration of the E4 peptide were also tested. It was confirmed that intraperitoneal and intratracheal administration was effective. The amount of E4 that was administered was 10 μg/ml in a total volume of 100 μl for skin and IP injections and 50 μl for IT administration.
For these studies, fibrosis was assessed by measurement of dermal thickness on H&E skin sections (skin), assessment of collagen levels by Masson Trichrome staining (skin and lung), and measurement of collagen levels by Sircol assay (lung). Furthermore, to confirm the mechanism by which E4 exerts its anti-fibrotic effects, the production of extra-cellular matrix (ECM) components, the levels of enzymes that promote matrix stabilization and thus accumulation and levels of those that degrade ECM components, and levels of transcription factors downstream of the pro-fibrotic triggers were evaluated. Results were assessed using the unpaired t test and the 3-way ANOVA (for the ID1 data).

[11] = system: MMP-3; assay: Genes regulated by E4: MMP-3; format: cell-based, human; conditions: HuF-T; RT-qPCR, protein expression levels, zymography
Experimental: as §1, §2

For “E4: SEQ ID NO: 21, amino acids 133-180 of human endostatin with a C-terminal amide (SYCETWRTEAPSATGQASSLLGGRLLGQSAASCHHAYIVLCIENSFMT-NH2; cysteine pairing not given here)”, which “bleomycin induced dermal fibrosis” value [1] is on record?
The value was “significant attenuation”.

What about the “Effect of E4 peptide on CTGF” value [2] of the same substance?
The value was “reduces; also recorded: Decrease”.

What about the “LOX levels in lung” value [3] of the same substance?
The value was “reduces levels; also recorded: reducing levels”.

And the “inhibition of tubular structure formation (anti-angiogenic activity)” value [4]?
The value was “modest and low and minimal anti-angiogenic activity”.

What about the “Effect of E4 peptide on PAI-1” value [5] of the same substance?
Its value is “reduces; also recorded: Decrease”.

What about the skin thickness [6] of the same substance?
The skin thickness was “significantly decreased skin”.

And the “pulmonary fibrosis (microscopy, hydroxyproline/collagen)” value [7]?
The value was “E4 significantly decreased”.

What about the ID1 levels [8] of the same substance?
Its ID1 levels is “increases; also recorded: inducing expression”.

And the “Effect of E4 peptide on IGFBP-3” value [9]?
The value was “reduces; also recorded: Decrease”.

What about the “TGF-β-induced dermal fibrosis (dermal thickness)” value ([10]; 10 μg/ml intradermal with TGF-β 10 ng/ml, one week) of the same substance?
Its value is “prevented”.

What about the “TGF-β induced dermal fibrosis, delayed treatment” value ([10]; TGF-β day 1, peptide IP at day 3, harvested day 7) of the same substance?
Its value is “significant decrease”.

What about the “Effect of E4 peptide on MMP-3” value [11] of the same substance?
The value was “increased levels and activity; also recorded: Increase”.
